Values joined by “and” are separate entries in the source; they are usually repeats but may differ in a detail not shown here. Identical values can stand only once.
Columns and labels:
Format in all cases: cell-based, human
HEP2 cells = assay: Flow cytometric analysis of cell cycle, HEP2; conditions: HEP2, IC50 of 5c, 48 h
Protocol: In the G0-G1 stage, the percentage of 5c-treated cells declined to 55.4% as opposed to 57.6% of untreated control cells. It was found in a previous work that lutein-induced G2/M phase arrest in A549 and PC-9 cells (Di et al. [2019]).
In DMEM-supplemented media, cells were plated in 12-well plates at a cell density of 6–8×10^5 per well. After twenty-four hours, cells were cultured for an additional 48 hours with the IC50 of the target compound. The untreated cells were used as a negative control. After 48 h of incubation, the treated cells were centrifuged at 1,200 rpm and 4 °C for 10 min. After discarding the supernatant, the wells were then given a single phosphate-buffered saline (PBS) wash and then centrifuged for 10 min at 1,200 rpm. Trypsin/EDTA was used to collect the cells, and after one PBS wash, they were resuspended in 0.5 mL of 0.05% Triton X-100 for 10 min at room temperature. Each cell suspension was stained by being given 1 mL of 50 µg/mL propidium iodide (PI) to be left at room temperature in the darkness for 20 minutes. The analysis of the cell cycle was done by a flow cytometer (Becton Dickenson (BD) FACSCalibur, USA) (Michalkova et al. [2022]).

Survivin gene = assay: Real-time PCR, Survivin gene expression; conditions: relative to untreated control (1)
Protocol: (§1) The expression level of the following six genes (Ki-67, Survivin, Interleukin-1 beta (IL-1B), Interleukin-6 (IL-6), Cyclooxygenase-2 (COX-2) and protein kinase B (AKT1)) was determined in MCF7 and HEP2 treated with the IC50 of compound 5c. The untreated cells were used as a negative control for comparison purposes. […] Ki-67 is a popular proliferation marker for human tumor cells. […] Survivin is an inhibitor of apoptotic protein (IAP) family member, which is essential for cell division. The lowering of the expression of survivin inhibited tumor development, triggered apoptosis, and made tumor cells more susceptible to radiation and chemotherapy (Albadari and Li [2023]). […] IL-1B is a pleiotropic mediator of inflammation, which is produced in response to a variety of stressors (Aarreberg et al. [2019]). […] IL-6 is a pro-inflammatory cytokine that plays a significant role in the proliferation and differentiation of human cells. It promotes the production of numerous proteins involved in acute inflammation (Uciechowski and Dempke [2020]). […]
(§2) The expression level of the following six genes (Ki-67, survivin, AKT1, IL-6, COX2, and IL-1B) was examined using real-time polymerase chain reaction (qPCR) (Mohamed et al. [2023a]). […] The cycle threshold (Ct) was determined automatically. […]

KI-67 gene = assay: Real-time PCR, KI-67 gene expression; conditions: relative to untreated control (1), normalized to GAPDH
Protocol: as §1, §2

[1] = HEP2 cells treated with IC50 of 5c
[2] = MCF7 cells treated with IC50 of 5c

COc1ccc(NC(=O)COc2ccc(C=CC(=O)c3cccs3)cc2)cc1 [Compound 5c, N-(4-Methoxyphenyl)-2-(4-(3-oxo-3-(thiophen-2-yl)prop-1-en-1-yl)phenoxy)acetamide]
Percentage of DNA in G2-M phase (HEP2 cells; untreated control 2.205±0.10607): 3.56% and 3.565±0.1485% | Percentage of DNA in S phase (HEP2 cells; untreated control 40.095±0.36062): 40.96% and 40.96±0.08485% | Percentage of DNA in G0-G1 phase (HEP2 cells; untreated control 57.67±0.21213): 55.4% and 55.475±0.233% | Survivin expression folding (Survivin gene; [1]): 0.489±0.07 fold | Survivin expression folding (Survivin gene; [2]): 0.632±0.0618 fold | KI67 expression folding (KI-67 gene; [1]): 0.648±0.015 fold | KI67 expression folding (KI-67 gene; [2]): 0.352±0.0172 fold

Source: paper PMC11582173, “Synthesis, cytotoxicity, anti-inflammatory, anti-metastatic and anti-oxidant activities of novel chalcones incorporating 2-phenoxy-N-arylacetamide and thiophene moieties: induction of apoptosis in MCF7 and HEP2 cells” (Naunyn-Schmiedeberg's Archives of Pharmacology, 2024)
